{
  "source": "PubChem BioAssay AID266",
  "about": "(DTP/NCI, 2004)",
  "system": "Nude mice, LX-1 lung xenograft intrarenal, tumor weight T/C",
  "assay": "NCI In Vivo Anticancer Drug Screen. Data for tumor model Human Lung LX-1 Xenograft (intrarenal inoculation) in NU/NU BALB/C (nude) mice",
  "conditions": "endpoint: mean tumor weight change, higher = larger tumour",
  "method": "The antitumor activity of compounds was measured in mice bearing transplantable tumors. Survival or tumor size were measured and the results are expressed as the measurement made in the treated group (T) divided by the measurement made in the vehicle treated control group (C). The tumor model used in this assay is Human Lung LX-1 Xenograft (intrarenal inoculation) in NU/NU BALB/C (nude) mice",
  "key": {"[1]": {"conditions": "dose: 150.0 mg/kg/injection, schedule: Q04DX003 (ip), vehicle: saline"}, "[2]": {"conditions": "dose: 300.0 mg/kg/injection, schedule: Q04DX003 (ip), vehicle: saline"}, "[3]": {"conditions": "dose: 600.0 mg/kg/injection, schedule: Q04DX003 (ip), vehicle: saline"}},
  "note": "Results filed as inconclusive are left out.",
  "data": [
    {"compound": "O=NN(CCCl)C(=O)NC1OC(CO)C(O)C(O)C1O", "note": "(configuration not stated)", "values": [
      {"measurement": "T/C", "setting": "dose: 5.0 mg/kg/injection, schedule: Q04DX003 (sc), vehicle: saline", "value": "86 % of control"},
      {"measurement": "T/C", "setting": "dose: 10.0 mg/kg/injection, schedule: Q04DX003 (sc), vehicle: saline", "value": "55 % of control"},
      {"measurement": "T/C", "setting": "dose: 20.0 mg/kg/injection, schedule: Q04DX003 (sc), vehicle: saline", "value": "66 % of control"}
    ]},
    {"compound": "CN(N=O)C(N)=O", "values": [
      {"measurement": "T/C", "setting": "dose: 12.5 mg/kg/injection, schedule: Q01DX010 (sc), vehicle: saline with Tween-80", "value": "-68 % of control"},
      {"measurement": "T/C", "setting": "dose: 25.0 mg/kg/injection, schedule: Q01DX010 (sc), vehicle: saline with Tween-80", "value": "-54 % of control"},
      {"measurement": "T/C", "setting": "dose: 50.0 mg/kg/injection, schedule: Q01DX010 (sc), vehicle: saline with Tween-80", "value": "-69 % of control"}
    ]},
    {"compound": "c1cc(OCC2CO2)ccc1OCC1CO1", "note": "(configuration not stated)", "values": [
      {"measurement": "T/C", "setting": "dose: 300.0 mg/kg/injection, schedule: Q04DX003 (sc), vehicle: saline with Tween-80", "value": "172 % of control"},
      {"measurement": "T/C", "setting": "dose: 600.0 mg/kg/injection, schedule: Q04DX003 (sc), vehicle: saline with Tween-80", "value": "118 % of control"},
      {"measurement": "T/C", "setting": "dose: 1200.0 mg/kg/injection, schedule: Q04DX003 (sc), vehicle: saline with Tween-80", "value": "114 % of control"},
      {"measurement": "T/C", "setting": "dose: 2400.0 mg/kg/injection, schedule: Q04DX003 (sc), vehicle: saline with Tween-80", "value": "88 % of control"}
    ]},
    {"compound": "O=CC(O)C(O)C(O)C(O)CO", "note": "(configuration not stated)", "values": [
      {"measurement": "T/C", "setting": "dose: 75.0 mg/kg/injection, schedule: Q04DX003 (ip), vehicle: saline", "value": "103 % of control"},
      {"measurement": "T/C", "setting": "[1]", "value": "101 % of control"},
      {"measurement": "T/C", "setting": "[2]", "value": "115 % of control"},
      {"measurement": "T/C", "setting": "[3]", "value": "88 % of control"},
      {"measurement": "T/C", "setting": "dose: 1200.0 mg/kg/injection, schedule: Q04DX003 (ip), vehicle: saline", "value": "95 % of control"}
    ]},
    {"compound": "CC[C@H]1CN2CCc3cc(OC)c(OC)cc3[C@@H]2C[C@@H]1C[C@H]1NCCc2cc(OC)c(OC)cc21", "values": [
      {"measurement": "T/C", "setting": "dose: 4.0 mg/kg/injection, schedule: Q01DX010 (sc), vehicle: saline", "value": "81 % of control"}
    ]},
    {"compound": "CC1=CC2c3cccc4[nH]cc(c34)CC2N(C)C1", "note": "(configuration not stated)", "values": [
      {"measurement": "T/C", "setting": "dose: 6.25 mg/kg/injection, schedule: Q04DX003 (ip), vehicle: suspension in saline", "value": "93 % of control"},
      {"measurement": "T/C", "setting": "dose: 12.5 mg/kg/injection, schedule: Q04DX003 (ip), vehicle: suspension in saline", "value": "111 % of control"},
      {"measurement": "T/C", "setting": "dose: 25.0 mg/kg/injection, schedule: Q04DX003 (ip), vehicle: suspension in saline", "value": "115 % of control"},
      {"measurement": "T/C", "setting": "dose: 50.0 mg/kg/injection, schedule: Q04DX003 (ip), vehicle: suspension in saline", "value": "115 % of control"}
    ]},
    {"compound": "COC(=O)Nc1cn2cc(C(=O)c3cccs3)ccc2n1", "values": [
      {"measurement": "T/C", "setting": "dose: 300.0 mg/kg/injection, schedule: Q04DX003 (sc), vehicle: Klucel (hydroxypropylcellulose) (HPC)", "value": "94 % of control"},
      {"measurement": "T/C", "setting": "dose: 600.0 mg/kg/injection, schedule: Q04DX003 (sc), vehicle: Klucel (hydroxypropylcellulose) (HPC)", "value": "96 % of control"},
      {"measurement": "T/C", "setting": "dose: 1200.0 mg/kg/injection, schedule: Q04DX003 (sc), vehicle: Klucel (hydroxypropylcellulose) (HPC)", "value": "54 % of control"},
      {"measurement": "T/C", "setting": "dose: 2400.0 mg/kg/injection, schedule: Q04DX003 (sc), vehicle: Klucel (hydroxypropylcellulose) (HPC)", "value": "99 % of control"}
    ]},
    {"compound": "N=[N+]=CC(=O)CCC(NC(=O)C(CCC(=O)C=[N+]=N)NC(=O)CCC(N)C(=O)O)C(=O)O", "note": "(configuration not stated)", "values": [
      {"measurement": "T/C", "setting": "dose: 0.2 mg/kg/injection, schedule: Q02DX005 (sc), vehicle: water", "value": "114 % of control"},
      {"measurement": "T/C", "setting": "dose: 0.4 mg/kg/injection, schedule: Q02DX005 (sc), vehicle: water", "value": "73 % of control"},
      {"measurement": "T/C", "setting": "dose: 0.8 mg/kg/injection, schedule: Q02DX005 (sc), vehicle: water", "value": "26 % of control"},
      {"measurement": "T/C", "setting": "dose: 1.6 mg/kg/injection, schedule: Q02DX005 (sc), vehicle: water", "value": "74 % of control"},
      {"measurement": "T/C", "setting": "dose: 3.2 mg/kg/injection, schedule: Q02DX005 (sc), vehicle: water", "value": "65 % of control"},
      {"measurement": "T/C", "setting": "dose: 6.4 mg/kg/injection, schedule: Q02DX005 (sc), vehicle: water", "value": "41 % of control"}
    ]},
    {"compound": "BrCCC1(CCBr)CCCCC1", "values": [
      {"measurement": "T/C", "setting": "dose: 300.0 mg/kg/injection, schedule: Q04DX003 (sc), vehicle: water", "value": "104 % of control"},
      {"measurement": "T/C", "setting": "dose: 600.0 mg/kg/injection, schedule: Q04DX003 (sc), vehicle: water", "value": "89 % of control"},
      {"measurement": "T/C", "setting": "dose: 1200.0 mg/kg/injection, schedule: Q04DX003 (sc), vehicle: water", "value": "85 % of control"}
    ]},
    {"compound": "CCOC(=O)C(N)CSC(=O)NC", "note": "(configuration not stated)", "values": [
      {"measurement": "T/C", "setting": "[1]", "value": "82 % of control"},
      {"measurement": "T/C", "setting": "[2]", "value": "52 % of control"},
      {"measurement": "T/C", "setting": "[3]", "value": "102 % of control"}
    ]},
    {"compound": "CNC(=O)O/N=C(\\CN=[N+]=[N-])C(C)(C)C", "values": [
      {"measurement": "T/C", "setting": "dose: 1.25 mg/kg/injection, schedule: Q04DX003 (sc), vehicle: saline", "value": "73 % of control"}
    ]}
  ]
}
